Experimental data taken from ChEMBL document CHEMBL1201862, “PubChem BioAssay data set” (2004).
The source made the active and inactive calls.

Columns and labels:
[1] = target: T1, Apoptotic protease-activating factor 1 (Homo sapiens, UniProt O14727); format: functional
T1 sequence (O14727 whole entry): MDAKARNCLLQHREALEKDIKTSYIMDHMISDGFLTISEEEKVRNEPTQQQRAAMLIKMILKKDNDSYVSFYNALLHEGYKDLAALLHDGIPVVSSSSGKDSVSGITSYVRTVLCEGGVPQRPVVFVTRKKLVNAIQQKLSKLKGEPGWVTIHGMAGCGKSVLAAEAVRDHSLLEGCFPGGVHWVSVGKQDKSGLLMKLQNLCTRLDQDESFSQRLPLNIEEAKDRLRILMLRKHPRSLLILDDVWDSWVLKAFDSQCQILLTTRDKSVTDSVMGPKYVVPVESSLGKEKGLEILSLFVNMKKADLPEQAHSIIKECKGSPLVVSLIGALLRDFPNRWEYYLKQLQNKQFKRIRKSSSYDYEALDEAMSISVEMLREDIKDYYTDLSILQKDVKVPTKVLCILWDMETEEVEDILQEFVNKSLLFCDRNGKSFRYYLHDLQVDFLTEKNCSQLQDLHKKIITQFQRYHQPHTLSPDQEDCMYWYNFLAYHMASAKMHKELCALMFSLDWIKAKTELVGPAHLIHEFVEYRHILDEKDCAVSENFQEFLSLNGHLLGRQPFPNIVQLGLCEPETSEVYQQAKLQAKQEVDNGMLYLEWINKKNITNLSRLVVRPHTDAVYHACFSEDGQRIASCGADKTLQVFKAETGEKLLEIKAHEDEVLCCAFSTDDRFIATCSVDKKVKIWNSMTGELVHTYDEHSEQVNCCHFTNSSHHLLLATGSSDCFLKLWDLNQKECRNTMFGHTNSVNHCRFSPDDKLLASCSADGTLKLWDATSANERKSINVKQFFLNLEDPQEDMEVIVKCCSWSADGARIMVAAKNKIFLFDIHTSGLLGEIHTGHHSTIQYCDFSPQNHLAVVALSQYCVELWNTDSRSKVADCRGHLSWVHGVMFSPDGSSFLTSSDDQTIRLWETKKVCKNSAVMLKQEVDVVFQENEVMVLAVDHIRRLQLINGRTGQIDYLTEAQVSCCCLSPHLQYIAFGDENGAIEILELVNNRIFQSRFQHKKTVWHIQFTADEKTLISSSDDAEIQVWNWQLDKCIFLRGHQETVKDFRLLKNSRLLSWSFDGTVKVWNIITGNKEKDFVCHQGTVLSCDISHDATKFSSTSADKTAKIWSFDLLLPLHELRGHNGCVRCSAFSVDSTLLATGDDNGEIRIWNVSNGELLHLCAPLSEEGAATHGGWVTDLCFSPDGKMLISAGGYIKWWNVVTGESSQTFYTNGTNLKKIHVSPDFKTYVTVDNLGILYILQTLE

[2] = tested on: Streptococcus sp. 'group A'; test: growth inhibition of control SK(-) GAS strain, dose response, counter-screen for streptokinase expression inhibitor project, luminescence, kanamycin, BacTiterGlo, confirmation (AID 1900); format: functional, organism-based
[3] = target: Insulin-like growth factor 1 receptor (Homo sapiens, UniProt P08069); test: Navigating the Kinome. Panel member name: IGF1R; format: functional
[4] = target: Cyclin-dependent kinase 7 (Homo sapiens, UniProt P50613); format: functional;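 further: value comes from a kinome-wide kinase profiling panel in which CDK7 is one member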
[5] = target: Death-associated protein kinase 3 (Homo sapiens, UniProt O43293); format: functional;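 further: measured as one member of a kinome-wide profiling panel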
[6] = target: ALK tyrosine kinase receptor (Homo sapiens, UniProt Q9UM73); format: functional;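 further: ALK tested as one member of a kinase panel screen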
[7] = target: Serine/threonine-protein kinase TAO1 (Homo sapiens, UniProt Q7L7X3); format: functional
[8] = target: Cyclin-dependent kinase 8 (Homo sapiens, UniProt P49336); test: Navigating the Kinome. Panel member name: CDK8; format: functional
[9] = target: Dual specificity tyrosine-phosphorylation-regulated kinase 1B (Homo sapiens, UniProt Q9Y463); test: Navigating the Kinome. Panel member name: DYRK1B; format: functional
[10] = target: T2, cAMP-dependent protein kinase catalytic subunit PRKX (Homo sapiens, UniProt P51817); format: functional
T2 sequence (P51817 whole entry): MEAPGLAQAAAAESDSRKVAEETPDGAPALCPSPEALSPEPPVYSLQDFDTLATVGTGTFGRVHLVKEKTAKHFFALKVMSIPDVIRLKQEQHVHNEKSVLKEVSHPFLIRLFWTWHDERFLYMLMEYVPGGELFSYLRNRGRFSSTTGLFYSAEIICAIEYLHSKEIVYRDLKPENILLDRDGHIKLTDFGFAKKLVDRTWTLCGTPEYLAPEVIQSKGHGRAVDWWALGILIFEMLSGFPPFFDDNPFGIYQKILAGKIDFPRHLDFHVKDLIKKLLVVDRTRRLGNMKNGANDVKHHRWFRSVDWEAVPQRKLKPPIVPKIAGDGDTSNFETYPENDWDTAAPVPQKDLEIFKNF

[11] = target: T3, Serine/threonine-protein kinase D3 (Homo sapiens, UniProt O94806); format: functional;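 further: determined within a kinase panel screen, with PRKCN as the panel member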
T3 sequence (O94806 whole entry): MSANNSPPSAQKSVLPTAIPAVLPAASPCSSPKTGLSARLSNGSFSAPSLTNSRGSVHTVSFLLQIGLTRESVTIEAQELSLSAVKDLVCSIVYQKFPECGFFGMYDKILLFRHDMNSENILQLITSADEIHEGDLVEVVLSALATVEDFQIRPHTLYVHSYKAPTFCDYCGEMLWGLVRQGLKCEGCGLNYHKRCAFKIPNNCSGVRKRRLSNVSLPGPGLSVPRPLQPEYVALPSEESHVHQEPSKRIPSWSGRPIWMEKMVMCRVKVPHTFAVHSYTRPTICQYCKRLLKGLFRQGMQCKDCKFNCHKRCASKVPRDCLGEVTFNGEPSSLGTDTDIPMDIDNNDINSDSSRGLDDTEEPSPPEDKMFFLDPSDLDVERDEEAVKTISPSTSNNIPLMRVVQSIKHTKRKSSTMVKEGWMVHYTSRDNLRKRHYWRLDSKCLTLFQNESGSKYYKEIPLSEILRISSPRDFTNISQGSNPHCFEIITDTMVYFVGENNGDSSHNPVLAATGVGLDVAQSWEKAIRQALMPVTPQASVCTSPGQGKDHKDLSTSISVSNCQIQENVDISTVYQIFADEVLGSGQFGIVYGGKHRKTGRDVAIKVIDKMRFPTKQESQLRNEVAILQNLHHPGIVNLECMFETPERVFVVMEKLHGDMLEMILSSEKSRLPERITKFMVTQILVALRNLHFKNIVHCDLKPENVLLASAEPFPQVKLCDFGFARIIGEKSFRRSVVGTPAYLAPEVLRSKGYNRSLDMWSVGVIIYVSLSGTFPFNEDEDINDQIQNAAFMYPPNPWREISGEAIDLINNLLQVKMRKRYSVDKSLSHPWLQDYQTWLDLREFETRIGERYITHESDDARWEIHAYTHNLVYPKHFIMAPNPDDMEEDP

Cyclin-dependent kinase 8, sequence (P49336 whole entry): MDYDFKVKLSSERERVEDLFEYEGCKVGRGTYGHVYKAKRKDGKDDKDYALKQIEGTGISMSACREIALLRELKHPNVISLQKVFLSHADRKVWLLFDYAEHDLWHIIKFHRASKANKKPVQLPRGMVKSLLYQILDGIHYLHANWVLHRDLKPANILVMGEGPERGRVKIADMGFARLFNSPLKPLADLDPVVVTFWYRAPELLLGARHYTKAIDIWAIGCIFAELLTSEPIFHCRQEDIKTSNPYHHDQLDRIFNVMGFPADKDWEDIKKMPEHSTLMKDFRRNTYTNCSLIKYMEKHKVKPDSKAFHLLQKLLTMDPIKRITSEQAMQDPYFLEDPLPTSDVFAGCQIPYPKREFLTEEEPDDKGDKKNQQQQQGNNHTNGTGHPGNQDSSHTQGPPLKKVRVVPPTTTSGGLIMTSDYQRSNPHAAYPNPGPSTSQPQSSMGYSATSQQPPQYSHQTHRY
Death-associated protein kinase 3, sequence (O43293 whole entry): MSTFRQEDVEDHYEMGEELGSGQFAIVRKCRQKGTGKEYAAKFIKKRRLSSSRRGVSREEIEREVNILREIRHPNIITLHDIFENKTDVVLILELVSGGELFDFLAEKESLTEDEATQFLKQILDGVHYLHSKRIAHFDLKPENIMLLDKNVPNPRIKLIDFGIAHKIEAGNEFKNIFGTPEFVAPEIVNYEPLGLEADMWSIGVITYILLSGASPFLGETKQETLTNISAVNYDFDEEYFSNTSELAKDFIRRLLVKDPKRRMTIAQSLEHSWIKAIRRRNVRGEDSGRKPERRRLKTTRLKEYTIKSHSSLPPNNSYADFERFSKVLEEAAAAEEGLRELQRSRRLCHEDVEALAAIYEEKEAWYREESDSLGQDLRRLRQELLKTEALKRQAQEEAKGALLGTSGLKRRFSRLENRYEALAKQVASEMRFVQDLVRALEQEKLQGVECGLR
Cyclin-dependent kinase 7, sequence (P50613 whole entry): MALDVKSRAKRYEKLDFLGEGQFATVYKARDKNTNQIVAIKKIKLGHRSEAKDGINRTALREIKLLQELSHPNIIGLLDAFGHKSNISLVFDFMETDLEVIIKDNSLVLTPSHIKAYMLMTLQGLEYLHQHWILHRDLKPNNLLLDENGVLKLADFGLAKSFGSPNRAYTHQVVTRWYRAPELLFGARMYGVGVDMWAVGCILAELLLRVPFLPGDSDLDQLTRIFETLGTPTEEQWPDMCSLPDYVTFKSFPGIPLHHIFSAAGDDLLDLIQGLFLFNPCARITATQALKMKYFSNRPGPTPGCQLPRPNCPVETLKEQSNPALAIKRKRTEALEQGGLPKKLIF
ALK tyrosine kinase receptor, sequence (Q9UM73 whole entry): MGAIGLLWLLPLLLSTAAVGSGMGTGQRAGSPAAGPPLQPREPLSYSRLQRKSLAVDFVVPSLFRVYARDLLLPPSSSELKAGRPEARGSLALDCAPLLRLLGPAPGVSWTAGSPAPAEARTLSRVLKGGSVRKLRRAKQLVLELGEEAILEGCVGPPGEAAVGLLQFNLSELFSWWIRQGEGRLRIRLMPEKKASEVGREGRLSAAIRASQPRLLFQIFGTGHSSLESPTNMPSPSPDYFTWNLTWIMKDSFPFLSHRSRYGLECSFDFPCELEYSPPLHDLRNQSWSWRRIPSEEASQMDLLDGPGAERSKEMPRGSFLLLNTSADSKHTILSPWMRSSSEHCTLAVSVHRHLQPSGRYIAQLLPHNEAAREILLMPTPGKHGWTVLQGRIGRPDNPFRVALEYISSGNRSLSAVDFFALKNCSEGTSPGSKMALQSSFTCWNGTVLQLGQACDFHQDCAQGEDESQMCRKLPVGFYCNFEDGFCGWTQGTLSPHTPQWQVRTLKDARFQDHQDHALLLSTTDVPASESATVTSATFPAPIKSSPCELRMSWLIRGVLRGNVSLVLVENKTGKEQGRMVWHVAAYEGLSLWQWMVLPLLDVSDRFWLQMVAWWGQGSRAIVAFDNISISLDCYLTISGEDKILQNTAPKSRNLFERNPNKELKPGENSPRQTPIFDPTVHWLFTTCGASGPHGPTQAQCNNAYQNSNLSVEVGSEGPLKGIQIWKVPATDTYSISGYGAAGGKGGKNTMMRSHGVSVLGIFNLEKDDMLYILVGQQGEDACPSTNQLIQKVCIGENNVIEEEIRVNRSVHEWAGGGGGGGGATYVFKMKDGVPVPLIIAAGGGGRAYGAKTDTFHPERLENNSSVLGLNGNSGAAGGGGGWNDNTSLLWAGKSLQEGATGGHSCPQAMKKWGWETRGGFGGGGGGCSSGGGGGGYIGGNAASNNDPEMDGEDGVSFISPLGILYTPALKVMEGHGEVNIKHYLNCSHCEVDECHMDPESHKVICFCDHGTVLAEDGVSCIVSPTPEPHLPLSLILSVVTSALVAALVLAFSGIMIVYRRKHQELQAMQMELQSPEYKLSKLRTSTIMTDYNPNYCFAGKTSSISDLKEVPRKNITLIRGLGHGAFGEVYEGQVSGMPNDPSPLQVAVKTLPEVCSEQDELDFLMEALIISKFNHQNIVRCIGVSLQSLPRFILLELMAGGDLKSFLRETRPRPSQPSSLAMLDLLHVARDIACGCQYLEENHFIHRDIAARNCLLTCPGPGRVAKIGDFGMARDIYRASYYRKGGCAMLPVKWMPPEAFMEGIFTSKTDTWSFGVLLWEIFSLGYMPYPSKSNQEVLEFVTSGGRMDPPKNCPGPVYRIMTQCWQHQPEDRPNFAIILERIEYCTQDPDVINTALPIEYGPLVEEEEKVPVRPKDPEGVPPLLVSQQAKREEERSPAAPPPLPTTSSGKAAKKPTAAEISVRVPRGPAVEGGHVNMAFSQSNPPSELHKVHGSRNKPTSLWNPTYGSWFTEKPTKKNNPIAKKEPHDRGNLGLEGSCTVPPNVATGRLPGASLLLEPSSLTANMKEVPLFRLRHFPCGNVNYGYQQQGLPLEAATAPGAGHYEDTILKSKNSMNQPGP
Dual specificity tyrosine-phosphorylation-regulated kinase 1B, sequence (Q9Y463 whole entry): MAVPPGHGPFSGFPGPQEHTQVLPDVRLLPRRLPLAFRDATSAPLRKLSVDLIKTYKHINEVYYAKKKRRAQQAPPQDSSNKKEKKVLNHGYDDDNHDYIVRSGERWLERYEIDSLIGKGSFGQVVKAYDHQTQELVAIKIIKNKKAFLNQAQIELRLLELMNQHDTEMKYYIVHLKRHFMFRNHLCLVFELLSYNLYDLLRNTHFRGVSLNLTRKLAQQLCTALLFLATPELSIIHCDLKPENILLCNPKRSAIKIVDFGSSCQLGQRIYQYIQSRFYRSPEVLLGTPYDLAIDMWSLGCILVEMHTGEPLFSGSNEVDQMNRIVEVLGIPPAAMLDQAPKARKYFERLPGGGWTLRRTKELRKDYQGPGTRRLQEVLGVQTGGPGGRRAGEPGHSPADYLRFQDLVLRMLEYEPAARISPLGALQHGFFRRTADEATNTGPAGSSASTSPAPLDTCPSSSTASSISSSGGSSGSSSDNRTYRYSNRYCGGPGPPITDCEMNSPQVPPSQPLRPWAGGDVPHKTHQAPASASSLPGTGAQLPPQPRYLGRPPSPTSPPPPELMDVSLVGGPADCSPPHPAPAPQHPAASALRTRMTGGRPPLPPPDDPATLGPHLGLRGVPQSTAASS
Serine/threonine-protein kinase TAO1, sequence (Q7L7X3 whole entry): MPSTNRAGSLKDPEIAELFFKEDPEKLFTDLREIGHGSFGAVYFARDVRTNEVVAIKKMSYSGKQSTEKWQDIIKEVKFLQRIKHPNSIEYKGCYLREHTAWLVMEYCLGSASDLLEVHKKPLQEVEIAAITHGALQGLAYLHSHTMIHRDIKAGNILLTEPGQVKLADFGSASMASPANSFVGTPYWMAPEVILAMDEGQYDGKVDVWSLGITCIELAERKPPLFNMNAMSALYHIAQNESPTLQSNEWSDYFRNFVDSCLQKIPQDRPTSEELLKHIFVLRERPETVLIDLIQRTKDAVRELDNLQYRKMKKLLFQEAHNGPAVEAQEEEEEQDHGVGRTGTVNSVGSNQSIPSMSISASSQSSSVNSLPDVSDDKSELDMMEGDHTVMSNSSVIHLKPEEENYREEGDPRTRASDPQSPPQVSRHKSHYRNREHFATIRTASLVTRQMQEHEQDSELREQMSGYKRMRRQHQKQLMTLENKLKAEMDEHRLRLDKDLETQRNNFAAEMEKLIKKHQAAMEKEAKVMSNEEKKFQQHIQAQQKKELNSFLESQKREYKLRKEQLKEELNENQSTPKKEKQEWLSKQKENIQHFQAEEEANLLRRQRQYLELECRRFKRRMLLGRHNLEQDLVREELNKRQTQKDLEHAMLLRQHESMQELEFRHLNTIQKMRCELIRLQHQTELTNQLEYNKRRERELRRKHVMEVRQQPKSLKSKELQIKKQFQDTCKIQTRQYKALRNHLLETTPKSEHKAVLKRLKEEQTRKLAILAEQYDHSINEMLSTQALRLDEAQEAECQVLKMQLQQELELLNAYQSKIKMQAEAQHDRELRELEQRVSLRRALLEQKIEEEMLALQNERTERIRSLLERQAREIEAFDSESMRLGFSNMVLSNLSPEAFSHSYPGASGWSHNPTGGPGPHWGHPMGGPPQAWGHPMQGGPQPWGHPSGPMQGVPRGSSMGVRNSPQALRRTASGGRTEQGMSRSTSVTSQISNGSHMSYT

| Ki [3] | Ki [4] | Ki [6] | Ki [7] | Ki [8] | Ki [9] | Ki [10] | Ki [11] | Structure (SMILES) | IC50 [1] | EC50 [2] | Ki [5] | other results |
| --- | --- | --- | --- | --- | --- | --- | --- | --- | --- | --- | --- | --- |
| – | – | – | – | – | – | – | – | CCOC(=O)c1ccc(NC2=CC(=O)C(=O)c3ccccc32)cc1 | 4730 nM (active) | 2300 nM (active) | – | – |
| > 2510 nM (inactive) | > 3980 nM (inactive) | > 6310 nM (inactive) | > 6310 nM (inactive) | > 3980 nM (inactive) | > 2510 nM (inactive) | 1260 nM (active) | > 3980 nM (inactive) | O=C(O)C1CN(Cc2ccc(OCc3ccccc3)cc2Cl)C1 | – | – | > 5010 nM (inactive) | – |
| > 2510 nM (inactive) | 50.1 nM (active) | 631 nM (active) | > 6310 nM (inactive) | 5.01 nM (active) | 15.8 nM (active) | 3.16 nM (active) | 5.01 nM (active) | NC1CCC(Nc2nc(Cl)cc(-c3c[nH]c4ncccc34)n2)CC1 (stereo unspecified) | – | – | 50.1 nM (active) | pKi [4]: 7.3; pKi [5]: 7.3; pKi [6]: 6.2; pKi [8]: 8.3; pKi [9]: 7.8; pKi [10]: 8.5; pKi [11]: 8.3 |
| – | – | – | – | – | – | – | – | Cc1ccccc1-c1cc2c(nn1)-c1ccccc1C2=O | 25500 nM (active) | – | – | – |
| – | – | – | – | – | – | – | – | COc1ccc(C(=O)c2nccc3cc(OC)c(OC)cc23)cc1OC | 24400 nM (active) | – | – | – |
| – | – | – | – | – | – | – | – | CCCCCCCCCCCCCCCC[N+](C)(C)C | 27500 nM (active) | 2060 nM (active) | – | – |
